# Test results reported in ChEMBL document CHEMBL1212733, “Chemical genomics in Escherichia coli identifies an inhibitor of bacterial lipoprotein targeting” (Nat Chem Biol, 2009).
# Activity calls are given as the source filed them. No cut-off for these calls is given here.
# What was measured:
# Escherichia coli [1] = assay: Antibacterial activity against Escherichia coli K-12 MG1655 after 16 hrs by microbroth dilution method; format: functional; settings: K-12 MG1655, 16 h
# Escherichia coli [2] = assay: Antibacterial activity against Escherichia coli ATCC 25922 after 16 hrs by microbroth dilution method; format: functional; settings: ATCC 25922, 16 h
# Pseudomonas aeruginosa = assay: Antibacterial activity against Pseudomonas aeruginosa PAO1 after 16 hrs by microbroth dilution method; format: functional; settings: PAO1, 16 h
# [3] = system: Stenotrophomonas maltophilia; assay: Antibacterial activity against Stenotrophomonas maltophilia B22020 after 16 hrs by microbroth dilution method; format: functional; settings: B22020, 16 h
# Burkholderia cepacia = assay: Antibacterial activity against Burkholderia cepacia B154408 after 16 hrs by microbroth dilution method; format: functional; settings: B154408, 16 h
# Bacillus subtilis = assay: Antibacterial activity against Bacillus subtilis 168 after 16 hrs by microbroth dilution method; format: functional; settings: subsp. subtilis str. 168, 16 h
# Micrococcus luteus = assay: Antibacterial activity against Micrococcus luteus after 16 hrs by microbroth dilution method; format: functional
# Staphylococcus aureus = assay: Antibacterial activity against Staphylococcus aureus after 16 hrs by microbroth dilution method; format: functional
# HeLa = assay: Cytotoxicity against human HeLa cells after 24 hrs by Cell Titre-Glo luminescent assay; format: cell-based
# Candida albicans = assay: Antifungal activity against Candida albicans after 16 hrs by microbroth dilution method; format: functional
# [4] = molecular target: tRNA threonylcarbamoyladenosine biosynthesis protein TsaE (Escherichia coli (strain K12)) (UniProt P0AF67); assay: Inhibition of IPTG-stimulated Escherichia coli K-12 yjeE at 4 fold MIC by microarray analysis
# [5] = molecular target: Small ribosomal subunit protein bS18 (Escherichia coli (strain K12)) (UniProt P0A7T7); assay: Inhibition of IPTG-stimulated Escherichia coli K-12 rpSR at 4 fold MIC by microarray analysis
# [6] = molecular target: T1, Dihydrofolate synthase/folylpolyglutamate synthase (Escherichia coli (strain K12)) (UniProt P08192); assay: Inhibition of IPTG-stimulated Escherichia coli K-12 folC at 4 fold MIC by microarray analysis
# T1 sequence (whole entry): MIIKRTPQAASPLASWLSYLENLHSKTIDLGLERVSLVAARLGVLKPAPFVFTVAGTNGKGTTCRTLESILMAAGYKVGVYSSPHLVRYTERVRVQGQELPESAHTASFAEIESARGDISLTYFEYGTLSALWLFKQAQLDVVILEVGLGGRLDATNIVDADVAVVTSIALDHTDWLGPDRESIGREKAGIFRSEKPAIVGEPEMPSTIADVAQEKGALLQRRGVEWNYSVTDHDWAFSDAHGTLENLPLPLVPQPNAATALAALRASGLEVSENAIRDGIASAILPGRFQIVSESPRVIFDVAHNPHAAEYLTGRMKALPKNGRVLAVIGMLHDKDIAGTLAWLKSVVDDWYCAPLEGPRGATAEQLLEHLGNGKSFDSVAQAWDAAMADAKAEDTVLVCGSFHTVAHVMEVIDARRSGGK
# [7] = molecular target: T2, Outer membrane protein TolC (Escherichia coli (strain K12)) (UniProt P02930); assay: Inhibition of IPTG-stimulated Escherichia coli K-12 tolC at 8 fold MIC by microarray analysis
# T2 sequence (whole entry): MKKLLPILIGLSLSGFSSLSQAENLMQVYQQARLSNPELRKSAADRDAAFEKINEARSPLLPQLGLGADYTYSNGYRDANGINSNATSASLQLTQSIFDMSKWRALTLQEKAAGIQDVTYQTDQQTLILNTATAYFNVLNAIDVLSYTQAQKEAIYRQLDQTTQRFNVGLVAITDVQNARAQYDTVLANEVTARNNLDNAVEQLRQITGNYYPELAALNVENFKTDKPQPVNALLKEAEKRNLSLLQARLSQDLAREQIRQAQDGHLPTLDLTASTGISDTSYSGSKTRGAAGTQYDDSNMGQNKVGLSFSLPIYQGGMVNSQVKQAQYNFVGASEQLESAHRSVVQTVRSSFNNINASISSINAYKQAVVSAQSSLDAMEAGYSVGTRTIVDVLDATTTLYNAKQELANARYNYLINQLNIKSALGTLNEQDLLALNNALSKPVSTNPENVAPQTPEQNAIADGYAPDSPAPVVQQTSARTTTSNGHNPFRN
# [8] = molecular target: tRNA threonylcarbamoyladenosine biosynthesis protein TsaE (Escherichia coli (strain K12)) (UniProt P0AF67); assay: Inhibition of IPTG-stimulated Escherichia coli K-12 yjeE at 8 fold MIC by microarray analysis
# [9] = molecular target: Small ribosomal subunit protein bS18 (Escherichia coli (strain K12)) (UniProt P0A7T7); assay: Inhibition of IPTG-stimulated Escherichia coli K-12 rpSR at 8 fold MIC by microarray analysis
# [10] = molecular target: T2, Outer membrane protein TolC (Escherichia coli (strain K12)); assay: Inhibition of IPTG-stimulated Escherichia coli K-12 tolC at 4 fold MIC by microarray analysis
# [11] = molecular target: UDP-N-acetylglucosamine 1-carboxyvinyltransferase (Escherichia coli K-12) (UniProt P0A749); assay: Inhibition of IPTG-stimulated Escherichia coli K-12 murA at 4 fold MIC by microarray analysis
# Chain of UDP-N-acetylglucosamine 1-carboxyvinyltransferase (Escherichia coli K-12) (P0A749 whole entry): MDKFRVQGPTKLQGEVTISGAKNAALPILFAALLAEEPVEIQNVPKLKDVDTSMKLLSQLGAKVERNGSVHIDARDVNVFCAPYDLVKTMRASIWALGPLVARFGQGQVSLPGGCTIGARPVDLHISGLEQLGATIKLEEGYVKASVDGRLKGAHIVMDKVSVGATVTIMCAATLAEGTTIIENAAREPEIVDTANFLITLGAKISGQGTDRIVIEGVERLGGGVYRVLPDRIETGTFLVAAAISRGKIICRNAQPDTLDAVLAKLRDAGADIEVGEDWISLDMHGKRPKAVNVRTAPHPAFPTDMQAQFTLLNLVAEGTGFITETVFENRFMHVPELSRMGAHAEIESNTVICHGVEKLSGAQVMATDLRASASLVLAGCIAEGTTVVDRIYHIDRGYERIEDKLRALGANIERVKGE
# [12] = molecular target: Multifunctional CCA protein (Escherichia coli (strain K12)) (UniProt P06961); assay: Inhibition of IPTG-stimulated Escherichia coli K-12 cca at 4 fold MIC by microarray analysis
# Chain of Multifunctional CCA protein (Escherichia coli (strain K12)) (P06961 whole entry): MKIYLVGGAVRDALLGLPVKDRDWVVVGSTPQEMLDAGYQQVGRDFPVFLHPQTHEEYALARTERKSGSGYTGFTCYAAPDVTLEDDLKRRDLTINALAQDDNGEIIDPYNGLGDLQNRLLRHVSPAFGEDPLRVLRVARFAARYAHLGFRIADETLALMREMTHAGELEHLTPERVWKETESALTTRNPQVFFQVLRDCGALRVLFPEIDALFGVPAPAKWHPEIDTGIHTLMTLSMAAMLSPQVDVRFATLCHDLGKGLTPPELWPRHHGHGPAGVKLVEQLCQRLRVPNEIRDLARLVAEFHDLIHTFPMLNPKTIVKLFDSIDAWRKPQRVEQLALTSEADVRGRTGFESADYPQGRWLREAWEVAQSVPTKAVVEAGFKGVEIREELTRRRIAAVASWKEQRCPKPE
# [13] = molecular target: D-alanine--D-alanine ligase B (Escherichia coli K-12) (UniProt P07862); assay: Inhibition of IPTG-stimulated Escherichia coli K-12 ddlB at 4 fold MIC by microarray analysis
# [14] = molecular target: T3, Uncharacterized protein YdiL (Escherichia coli (strain K12)) (UniProt P76196); assay: Inhibition of IPTG-stimulated Escherichia coli K-12 ydiL at 16 fold MIC by microarray analysis
# T3 sequence (whole entry): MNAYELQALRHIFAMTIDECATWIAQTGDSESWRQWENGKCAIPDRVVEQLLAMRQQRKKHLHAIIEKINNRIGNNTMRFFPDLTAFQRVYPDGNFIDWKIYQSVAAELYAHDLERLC
# [15] = molecular target: T2, Outer membrane protein TolC (Escherichia coli (strain K12)); assay: Inhibition of IPTG-stimulated Escherichia coli K-12 tolC at 16 fold MIC by microarray analysis
# [16] = molecular target: T3, Uncharacterized protein YdiL (Escherichia coli (strain K12)); assay: Inhibition of IPTG-stimulated Escherichia coli K-12 ydiL at 8 fold MIC by microarray analysis
# [17] = molecular target: Transcriptional regulatory protein BaeR (Escherichia coli (strain K12)) (UniProt P69228); assay: Inhibition of IPTG-stimulated Escherichia coli K-12 baeR at 4 fold MIC by microarray analysis
# Chain of Transcriptional regulatory protein BaeR (Escherichia coli (strain K12)) (P69228 whole entry): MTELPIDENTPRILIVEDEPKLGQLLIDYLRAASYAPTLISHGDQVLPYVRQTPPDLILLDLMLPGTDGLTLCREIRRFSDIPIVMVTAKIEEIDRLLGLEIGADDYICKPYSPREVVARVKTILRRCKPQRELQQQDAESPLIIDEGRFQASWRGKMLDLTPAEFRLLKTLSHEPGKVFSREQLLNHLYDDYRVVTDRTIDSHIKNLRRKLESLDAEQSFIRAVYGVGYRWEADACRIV
# [18] = molecular target: Protein YdfW (Escherichia coli (strain K12)) (UniProt P76164); assay: Inhibition of IPTG-stimulated Escherichia coli K-12 ydfW at 4 fold MIC by microarray analysis
# Chain of Protein YdfW (Escherichia coli (strain K12)) (P76164 whole entry): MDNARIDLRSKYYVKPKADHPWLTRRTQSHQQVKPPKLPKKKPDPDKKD
# [19] = molecular target: Glycerate 3-kinase (Escherichia coli (strain K12)) (UniProt P77364); assay: Inhibition of IPTG-stimulated Escherichia coli K-12 glxK at 4 fold MIC by microarray analysis
# Chain of Glycerate 3-kinase (Escherichia coli (strain K12)) (P77364 whole entry): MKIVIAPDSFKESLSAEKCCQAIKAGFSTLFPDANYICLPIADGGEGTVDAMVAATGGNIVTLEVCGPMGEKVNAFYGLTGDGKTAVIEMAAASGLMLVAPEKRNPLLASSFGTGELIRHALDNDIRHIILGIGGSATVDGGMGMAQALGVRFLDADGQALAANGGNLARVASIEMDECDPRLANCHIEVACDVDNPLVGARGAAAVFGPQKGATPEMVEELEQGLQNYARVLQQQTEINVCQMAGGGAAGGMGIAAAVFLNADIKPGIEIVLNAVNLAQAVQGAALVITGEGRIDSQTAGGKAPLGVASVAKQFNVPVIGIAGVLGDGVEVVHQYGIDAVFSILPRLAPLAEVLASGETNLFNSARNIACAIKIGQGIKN
# [20] = molecular target: Long-chain fatty acid transport protein (Escherichia coli (strain K12)) (UniProt P10384); assay: Inhibition of IPTG-stimulated Escherichia coli K-12 fadl at 4 fold MIC by microarray analysis
# Chain of Long-chain fatty acid transport protein (Escherichia coli (strain K12)) (P10384 whole entry): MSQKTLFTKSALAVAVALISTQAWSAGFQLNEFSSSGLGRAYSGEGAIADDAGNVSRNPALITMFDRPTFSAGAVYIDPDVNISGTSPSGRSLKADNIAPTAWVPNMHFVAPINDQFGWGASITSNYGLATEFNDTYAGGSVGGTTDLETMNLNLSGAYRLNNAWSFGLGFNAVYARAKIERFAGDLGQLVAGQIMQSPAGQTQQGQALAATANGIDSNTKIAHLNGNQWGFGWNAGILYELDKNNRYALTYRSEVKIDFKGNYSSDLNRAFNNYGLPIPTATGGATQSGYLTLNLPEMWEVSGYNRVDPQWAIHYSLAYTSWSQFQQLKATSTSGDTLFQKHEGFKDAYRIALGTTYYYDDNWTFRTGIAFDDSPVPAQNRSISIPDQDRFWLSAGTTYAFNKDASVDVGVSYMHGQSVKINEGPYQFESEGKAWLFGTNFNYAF
# [21] = molecular target: Intermembrane phospholipid transport system binding protein MlaB (Escherichia coli (strain K12)) (UniProt P64602); assay: Inhibition of IPTG-stimulated Escherichia coli K-12 yrbB at 4 fold MIC by microarray analysis
# [22] = molecular target: 4-hydroxy-tetrahydrodipicolinate reductase (Escherichia coli (strain K12)) (UniProt P04036); assay: Inhibition of IPTG-stimulated Escherichia coli K-12 dapB at 4 fold MIC by microarray analysis
# Chain of 4-hydroxy-tetrahydrodipicolinate reductase (Escherichia coli (strain K12)) (P04036 whole entry): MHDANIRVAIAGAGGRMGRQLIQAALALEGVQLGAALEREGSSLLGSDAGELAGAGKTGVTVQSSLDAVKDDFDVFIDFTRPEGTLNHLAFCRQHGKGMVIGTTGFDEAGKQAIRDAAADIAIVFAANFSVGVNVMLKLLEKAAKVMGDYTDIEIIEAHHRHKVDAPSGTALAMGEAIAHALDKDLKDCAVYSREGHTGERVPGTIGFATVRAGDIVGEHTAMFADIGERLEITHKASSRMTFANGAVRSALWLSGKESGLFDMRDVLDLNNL
# [23] = molecular target: Thymidylate kinase (Escherichia coli (strain K12)) (UniProt P0A720); assay: Inhibition of IPTG-stimulated Escherichia coli K-12 tmk at 4 fold MIC by microarray analysis
# Chain of Thymidylate kinase (Escherichia coli (strain K12)) (P0A720 whole entry): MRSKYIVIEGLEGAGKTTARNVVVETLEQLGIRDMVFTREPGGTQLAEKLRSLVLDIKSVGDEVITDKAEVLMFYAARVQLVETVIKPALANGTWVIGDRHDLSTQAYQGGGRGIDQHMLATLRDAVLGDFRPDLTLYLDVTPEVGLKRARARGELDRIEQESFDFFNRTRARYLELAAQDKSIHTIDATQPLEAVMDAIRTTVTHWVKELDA
# [24] = molecular target: UDP-N-acetylmuramoylalanine--D-glutamate ligase (Escherichia coli K-12) (UniProt P14900); assay: Inhibition of IPTG-stimulated Escherichia coli K-12 murD at 4 fold MIC by microarray analysis
# Chain of UDP-N-acetylmuramoylalanine--D-glutamate ligase (Escherichia coli K-12) (P14900 whole entry): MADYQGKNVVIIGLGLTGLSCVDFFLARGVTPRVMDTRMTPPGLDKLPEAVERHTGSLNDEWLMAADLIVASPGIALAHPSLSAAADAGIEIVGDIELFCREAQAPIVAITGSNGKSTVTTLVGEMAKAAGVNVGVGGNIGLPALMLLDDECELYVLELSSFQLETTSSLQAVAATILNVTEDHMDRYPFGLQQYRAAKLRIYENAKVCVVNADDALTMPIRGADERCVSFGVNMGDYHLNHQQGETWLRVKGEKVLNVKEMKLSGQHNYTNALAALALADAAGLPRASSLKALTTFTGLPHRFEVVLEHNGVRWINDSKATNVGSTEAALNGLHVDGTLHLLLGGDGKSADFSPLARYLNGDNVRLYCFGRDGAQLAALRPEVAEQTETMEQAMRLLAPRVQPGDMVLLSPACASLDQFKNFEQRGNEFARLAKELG
# [25] = molecular target: Phosphatidylglycerol--prolipoprotein diacylglyceryl transferase (Escherichia coli (strain K12)) (UniProt P60955); assay: Inhibition of IPTG-stimulated Escherichia coli K-12 umpA at 4 fold MIC by microarray analysis
# Chain of Phosphatidylglycerol--prolipoprotein diacylglyceryl transferase (Escherichia coli (strain K12)) (P60955 whole entry): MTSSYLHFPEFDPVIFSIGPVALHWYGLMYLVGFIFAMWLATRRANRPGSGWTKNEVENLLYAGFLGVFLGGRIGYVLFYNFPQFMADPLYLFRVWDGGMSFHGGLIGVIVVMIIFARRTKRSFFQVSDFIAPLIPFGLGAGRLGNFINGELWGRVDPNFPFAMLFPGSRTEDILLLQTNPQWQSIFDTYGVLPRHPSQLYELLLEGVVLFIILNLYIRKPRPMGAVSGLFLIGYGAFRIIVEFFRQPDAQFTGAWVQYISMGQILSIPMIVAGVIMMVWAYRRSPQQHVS
# [26] = molecular target: Cell shape-determining protein MreC (Escherichia coli (strain K12)) (UniProt P16926); assay: Inhibition of IPTG-stimulated Escherichia coli K-12 mreC at 4 fold MIC by microarray analysis
# Chain of Cell shape-determining protein MreC (Escherichia coli (strain K12)) (P16926 whole entry): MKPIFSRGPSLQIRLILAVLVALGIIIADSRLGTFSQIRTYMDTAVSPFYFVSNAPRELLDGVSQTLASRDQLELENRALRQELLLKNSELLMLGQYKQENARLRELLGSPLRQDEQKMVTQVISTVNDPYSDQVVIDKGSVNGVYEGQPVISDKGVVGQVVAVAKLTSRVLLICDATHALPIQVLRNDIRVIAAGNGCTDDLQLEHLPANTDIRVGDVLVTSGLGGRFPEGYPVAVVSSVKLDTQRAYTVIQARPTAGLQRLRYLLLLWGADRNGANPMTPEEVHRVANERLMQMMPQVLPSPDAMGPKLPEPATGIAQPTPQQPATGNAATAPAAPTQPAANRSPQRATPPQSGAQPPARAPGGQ
# [27] = molecular target: Antitoxin YefM (Escherichia coli (strain K12)) (UniProt P69346); assay: Inhibition of IPTG-stimulated Escherichia coli K-12 yefM at 4 fold MIC by microarray analysis
# Chain of Antitoxin YefM (Escherichia coli (strain K12)) (P69346 whole entry): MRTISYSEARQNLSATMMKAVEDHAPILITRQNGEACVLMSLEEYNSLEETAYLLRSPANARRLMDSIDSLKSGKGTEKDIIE
# [28] = molecular target: Large ribosomal subunit protein uL2 (Escherichia coli (strain K12)) (UniProt P60422); assay: Inhibition of IPTG-stimulated Escherichia coli K-12 rplB at 4 fold MIC by microarray analysis
# [29] = molecular target: tRNA(Ile)-lysidine synthase (Escherichia coli (strain K12)) (UniProt P52097); assay: Inhibition of IPTG-stimulated Escherichia coli K-12 mesJ at 4 fold MIC by microarray analysis
# Chain of tRNA(Ile)-lysidine synthase (Escherichia coli (strain K12)) (P52097 whole entry): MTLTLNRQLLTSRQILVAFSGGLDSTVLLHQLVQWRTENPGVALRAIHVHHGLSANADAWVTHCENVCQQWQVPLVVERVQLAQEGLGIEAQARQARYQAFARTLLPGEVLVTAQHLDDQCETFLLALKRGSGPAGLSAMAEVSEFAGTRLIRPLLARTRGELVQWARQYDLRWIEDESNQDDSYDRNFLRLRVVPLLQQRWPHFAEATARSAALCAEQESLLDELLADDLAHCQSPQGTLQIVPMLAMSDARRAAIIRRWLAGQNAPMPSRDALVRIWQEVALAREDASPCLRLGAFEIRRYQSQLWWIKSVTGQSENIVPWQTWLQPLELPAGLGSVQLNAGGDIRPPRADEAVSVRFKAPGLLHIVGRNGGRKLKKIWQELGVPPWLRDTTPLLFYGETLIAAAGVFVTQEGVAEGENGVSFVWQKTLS
# [30] = molecular target: Cell division protein FtsX (Escherichia coli (strain K12)) (UniProt P0AC30); assay: Inhibition of IPTG-stimulated Escherichia coli K-12 ftsX at 4 fold MIC by microarray analysis
# Chain of Cell division protein FtsX (Escherichia coli (strain K12)) (P0AC30 whole entry): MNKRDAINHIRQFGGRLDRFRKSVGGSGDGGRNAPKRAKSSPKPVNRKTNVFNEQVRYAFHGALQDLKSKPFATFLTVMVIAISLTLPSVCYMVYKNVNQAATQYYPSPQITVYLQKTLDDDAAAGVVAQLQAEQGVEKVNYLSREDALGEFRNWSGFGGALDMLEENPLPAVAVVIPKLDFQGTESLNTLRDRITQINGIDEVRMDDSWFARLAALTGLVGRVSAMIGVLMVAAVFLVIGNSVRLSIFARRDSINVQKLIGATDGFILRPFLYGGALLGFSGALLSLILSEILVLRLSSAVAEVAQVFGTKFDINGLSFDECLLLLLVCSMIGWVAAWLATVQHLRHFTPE
# [31] = molecular target: Glutamyl-tRNA reductase (Escherichia coli (strain K12)) (UniProt P0A6X1); assay: Inhibition of IPTG-stimulated Escherichia coli K-12 hemA at 4 fold MIC by microarray analysis
# Chain of Glutamyl-tRNA reductase (Escherichia coli (strain K12)) (P0A6X1 whole entry): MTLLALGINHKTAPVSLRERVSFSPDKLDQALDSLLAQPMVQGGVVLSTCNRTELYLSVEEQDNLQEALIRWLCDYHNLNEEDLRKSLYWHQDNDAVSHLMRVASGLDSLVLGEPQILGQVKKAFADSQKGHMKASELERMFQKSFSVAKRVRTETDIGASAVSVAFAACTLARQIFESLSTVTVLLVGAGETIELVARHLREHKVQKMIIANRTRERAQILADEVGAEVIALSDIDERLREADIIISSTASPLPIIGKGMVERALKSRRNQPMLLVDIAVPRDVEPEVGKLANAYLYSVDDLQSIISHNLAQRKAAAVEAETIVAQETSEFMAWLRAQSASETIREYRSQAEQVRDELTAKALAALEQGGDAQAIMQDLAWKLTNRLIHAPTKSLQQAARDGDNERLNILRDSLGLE
# [32] = molecular target: Large ribosomal subunit protein bL28 (Escherichia coli (strain K12)) (UniProt P0A7M2); assay: Inhibition of IPTG-stimulated Escherichia coli K-12 rpmB at 4 fold MIC by microarray analysis
smiles,measurement,setting,value
CN1CN=C(SCc2ccc(Cl)cc2)NC1,MIC,Escherichia coli [1],8 µg/mL
same,MIC,Escherichia coli [2],256 µg/mL
same,MIC,Pseudomonas aeruginosa,> 256 µg/mL
same,MIC,[3],> 256 µg/mL
same,MIC,Burkholderia cepacia,> 256 µg/mL
same,MIC,Bacillus subtilis,> 256 µg/mL
same,MIC,Micrococcus luteus,> 256 µg/mL
same,MIC,Staphylococcus aureus,> 256 µg/mL
same,Activity,HeLa,> 256 µg/mL
same,MIC,Candida albicans,> 256 µg/mL
Cc1cc(NS(=O)(=O)c2ccc(N)cc2)no1,inhibition,[4],Active
same,inhibition,[5],Active
same,inhibition,[6],Active
same,inhibition,[7],Active
same,inhibition,[8],Active
same,inhibition,[9],Active
same,inhibition,[10],Active
COc1ccc(CCN2CN=C(SCc3cccc(Cl)c3)NC2)cc1OC,MIC,Escherichia coli [1],> 256 µg/mL
COc1ccc(CN2CN=C(SCc3ccc(Cl)cc3)NC2)cc1OC,MIC,Escherichia coli [1],32 µg/mL
COc1cc(Cc2cnc(N)nc2N)cc(OC)c1OC,inhibition,[5],Active
Clc1ccc(CSC2=NCN(CCc3ccccc3)CN2)cc1,MIC,Escherichia coli [1],8 µg/mL
COc1ccc(CCN2CN=C(SCc3ccccc3Cl)NC2)cc1OC,MIC,Escherichia coli [1],> 256 µg/mL
Clc1ccc(CCN2CN=C(SCc3ccc(Cl)cc3)NC2)cc1,MIC,Escherichia coli [1],32 µg/mL
COc1ccc(CCN2CN=C(SCc3ccccc3)NC2)cc1OC,MIC,Escherichia coli [1],256 µg/mL
same,MIC,Escherichia coli [2],8 µg/mL
same,MIC,Pseudomonas aeruginosa,32 µg/mL
same,MIC,[3],16 µg/mL
same,MIC,Burkholderia cepacia,128 µg/mL
same,MIC,Bacillus subtilis,> 256 µg/mL
same,MIC,Micrococcus luteus,> 256 µg/mL
same,MIC,Staphylococcus aureus,> 256 µg/mL
same,Activity,HeLa,> 256 µg/mL
same,MIC,Candida albicans,> 256 µg/mL
COc1cccc(CCN2CN=C(SCc3ccc(Cl)cc3)NC2)c1,MIC,Escherichia coli [1],16 µg/mL
O=CN(O)CCCP(=O)(O)O,inhibition,[4],Active
same,inhibition,[11],Active
same,inhibition,[12],Active
same,inhibition,[13],Active
same,inhibition,[14],Active
same,inhibition,[15],Active
same,inhibition,[16],Active
same,inhibition,[7],Active
same,inhibition,[17],Active
same,inhibition,[18],Active
same,inhibition,[19],Active
same,inhibition,[20],Active
same,inhibition,[21],Active
same,inhibition,[22],Active
same,inhibition,[23],Active
same,inhibition,[24],Active
same,inhibition,[25],Active
same,inhibition,[26],Active
same,inhibition,[27],Active
same,inhibition,[28],Active
same,inhibition,[29],Active
same,inhibition,[30],Active
same,inhibition,[31],Active
same,inhibition,[32],Active
same,inhibition,[10],Active
CCN1CN=C(SCc2ccc(Cl)cc2)NC1,MIC,Escherichia coli [1],8 µg/mL
COc1ccc(CCN2CN=C(SCc3ccc(Cl)cc3)NC2)cc1,MIC,Escherichia coli [1],64 µg/mL
COc1ccc(CCN2CN=C(SCc3ccc(C)cc3)NC2)cc1OC,MIC,Escherichia coli [1],64 µg/mL
COc1ccc(CCN2CN=C(SCc3ccc(Br)cc3)NC2)cc1OC,MIC,Escherichia coli [1],8 µg/mL
COc1ccc(CCN2CN=C(SCc3ccc([N+](=O)[O-])cc3)NC2)cc1OC,MIC,Escherichia coli [1],> 256 µg/mL
CN[C@@H]1[C@H](O)[C@H](NC)[C@H]2O[C@@]3(O)C(=O)C[C@@H](C)O[C@H]3O[C@@H]2[C@H]1O,inhibition,[4],Active
same,inhibition,[5],Active
same,inhibition,[8],Active
same,inhibition,[9],Active
COc1ccc(CCN2CN=C(SCc3cc(Cl)cc(Cl)c3)NC2)cc1OC,MIC,Escherichia coli [1],16 µg/mL
COc1ccc(CCN2CN=C(SCc3ccc(I)cc3)NC2)cc1OC,MIC,Escherichia coli [1],256 µg/mL
COc1ccc(CSC2=NCN(CCc3ccc(OC)c(OC)c3)CN2)cc1,MIC,Escherichia coli [1],512 µg/mL
COc1ccc(CCN2CN=C(SCc3ccc(Cl)c(Cl)c3)NC2)cc1OC,MIC,Escherichia coli [1],8 µg/mL
